Patent publication US20110105323A1, “Calcium Salts of Phosphorous Acid for Increasing the Effect of Fungicides” (BASF SE, priority 2008, published 2011)
Read-outs that look alike come from different tables or passages of the source.

Columns and labels:
[1] = system: Phytophthora infestans; conditions: in vivo
[2] = system: Plasmopara viticola; test: Example 9: downy mildew on grapevines, translaminar action; format: in vivo
[3] = system: Plasmopara viticola; test: Example 10: downy mildew on grapevines, greenhouse, protective spray (7 days); format: in vivo
[4] = system: Plasmopara viticola; test: Example 6: downy mildew on grapevines, greenhouse, protective spray (1 day); format: in vivo
[5] = system: Phytophthora infestans; conditions: in vivo; remark: listed apart in the source
[6] = system: Plasmopara viticola; test: Example 7: downy mildew on grapevines, greenhouse, as example 6; format: in vivo
[7] = system: Plasmopara viticola; test: Example 8: downy mildew on grapevines, bar application pattern; format: in vivo
[8] = system: downy mildew on grapevines; test: Example 12: downy mildew on grapevines, outdoor test with natural infections; format: in vivo
[9] = system: downy mildew on grapevines; test: Example 13: downy mildew on grapevines, outdoor test with natural infections; format: in vivo
[10] = system: downy mildew on grapevines; test: Example 14: downy mildew on grapevines, outdoor test with natural infections; format: in vivo
[11] = system: Phakopsora pachyrhizi; test: Example 11: soybean rust on soybeans, greenhouse; format: in vivo

Structure (SMILES): CCCCCCCCc1c(CC)nc2ncnn2c1N [fungicide A, 5-ethyl-6-octyl-[1,2,4]triazolo[1,5-a]pyrimidin-7-ylamine]
- Efficacy W [1]: 39%
- Efficacy W ([2]; fungicide A 5 ppm, translaminar, applied to upper side of leaf 48 hours prior to inoculation): 1%
- Efficacy W ([3]; fungicide A 100 ppm, grapevine leaves sprayed 7 days before inoculation): 85%

Structure (SMILES): COC(=O)N(OC)c1ccccc1COc1ccn(-c2ccc(Cl)cc2)n1 [pyraclostrobin]
- Efficacy W ([4]; pyraclostrobin 0.5 ppm in spray liquor, Riesling leaves sprayed 1 day before inoculation): 92%

Structure (SMILES): N#Cc1sc2c(=O)c3ccccc3c(=O)c=2sc1C#N [dithianon]
- Efficacy W [5]: 31%
- Efficacy W ([6]; dithianon 10 ppm in spray liquor, grapevine leaves sprayed 1 day before inoculation): 62%
- Efficacy W ([7]; dithianon 10 ppm, bar application on lower half of upper leaf side 1 day before inoculation, scored on apical half of leaf underside): 6%
- Efficacy W ([8]; dithianon 300 ppm, outdoors, natural infections, spray interval 14-16 days, scored 1 day after the 6th application): 85%
- Efficacy W ([9]; dithianon 400 ppm, outdoors, natural infections, 7 application dates, spray interval 14-16 days): 48%
- Efficacy W ([10]; dithianon 300 ppm, outdoors, natural infections, spray interval 9-11 days, scored 4 days after the 8th application): 56%

Structure (SMILES): O=C(Nc1ccccc1-c1ccc(Cl)cc1)c1cccnc1Cl [boscalid]
- Efficacy W ([11]; boscalid 20 ppm, soybean 'Monsoy' leaves sprayed 2 days before inoculation, scored after 10-12 days): 11%

Structure (SMILES): [Ca+2].[O-]P([O-])O [Ca(H2PO3)2, calcium hydrogenphosphite]
- Efficacy W ([4]; in vivo): 3%
- Efficacy W ([6]; in vivo): 3%
- Efficacy W ([7]; in vivo): 0%
- Efficacy W ([2]; in vivo): 0%
- Efficacy W ([3]; in vivo): 9%
- Efficacy W ([11]; in vivo): 48%
- Efficacy W ([8]; in vivo): 18%
- Efficacy W ([9]; in vivo): 21%
- Efficacy W ([10]; in vivo): 24%
